These results are taken from patent US20220144823A1, “PYRAZOLOPYRIDINE DERIVATIVES AS INHIBITORS OF PASK” (Galapagos NV, priority 2019, published 2022).

Assay [1] addresses T1, human PASK (Homo sapiens, UniProt Q96RG2).
T1 construct: purchased ThermoFisher Scientific PR7013A
Briefly: ADP-Glo kinase assay. The following applies: ADPGlo PASK kinase assay, 25 μM ATP, ZIPtide 25 μM. The format is biochemical. The procedure:
The ADP-Glo™ kinase assay is a luminescent technology assay which measures the ADP formed from a kinase reaction. In this specific study, the kinase reactions consisted of the phosphorylation of the ZIPtide peptide substrate by human recombinant PASK. In a second step the kinase reaction is terminated and all the remaining ATP is depleted. In a final step the ADP is converted into ATP and this newly synthesized ATP is measured by using a luciferase/luciferin reaction. The generated light is measured using an Envision plate reader, wherein the luminescent signal obtained positively correlates with the kinase activity.
The test compounds are prepared as a serial dilution of 10 point dose responses with 1/5 dilution steps in 100% DMSO starting from 2 mM highest concentration, diluted 1/20 in water and 1 μL is transferred to the assay plates (PerkinElmer Inc., Cat #6007290).
(§1) 1% DMSO and 10 μM staurosporine final concentrations are used respectively as negative and positive controls.
2 μL enzyme-substrate mixture is added to the assay plates.
The reaction is started by adding 2 μL diluted ATP on the assay plates immediately after addition of the enzyme-substrate mixture to the compound. Plates are centrifuged for a few seconds at 1000 rpm and gently shaken for 2 min followed by an incubation at RT for 120 min.
The reactions are stopped and the unconsumed ATP is depleted by adding 5 μL ADP-Glo Reagent (Promega, Cat #V912B) to the reaction. The plates are centrifuged for a few seconds at 1000 rpm and incubated at RT for 40 min (ATP depletion).
The ADP is converted to ATP and luciferase and luciferin is introduced to detect ATP by adding 10 μL Kinase Detection Reagent (Promega, Cat #V913B+V914B) to the reaction. The plates are centrifuged for a few seconds at 1000 rpm and incubated at RT for 30 min (ADP detection).
Luminescence is measured on an Envision plate reader (PerkinElmer Inc.).
Raw data are generated following the read-out performed on the Envision plate reader, used to calculate percentage inhibition (PIN) values and plotted to generate dose response curves and derive the average half maximal inhibitory concentrations (IC50) reported in Table VIII.

The target in assay [2] is T2, autophosphorylation of PASK at position Thr307 in Hek293 cells overexpressing PASK (Homo sapiens, UniProt Q96RG2).
T2 construct: expressed in transfected cells; host or cells: Hek293
T2 sequence (Q96RG2 with tags, fused parts or gaps): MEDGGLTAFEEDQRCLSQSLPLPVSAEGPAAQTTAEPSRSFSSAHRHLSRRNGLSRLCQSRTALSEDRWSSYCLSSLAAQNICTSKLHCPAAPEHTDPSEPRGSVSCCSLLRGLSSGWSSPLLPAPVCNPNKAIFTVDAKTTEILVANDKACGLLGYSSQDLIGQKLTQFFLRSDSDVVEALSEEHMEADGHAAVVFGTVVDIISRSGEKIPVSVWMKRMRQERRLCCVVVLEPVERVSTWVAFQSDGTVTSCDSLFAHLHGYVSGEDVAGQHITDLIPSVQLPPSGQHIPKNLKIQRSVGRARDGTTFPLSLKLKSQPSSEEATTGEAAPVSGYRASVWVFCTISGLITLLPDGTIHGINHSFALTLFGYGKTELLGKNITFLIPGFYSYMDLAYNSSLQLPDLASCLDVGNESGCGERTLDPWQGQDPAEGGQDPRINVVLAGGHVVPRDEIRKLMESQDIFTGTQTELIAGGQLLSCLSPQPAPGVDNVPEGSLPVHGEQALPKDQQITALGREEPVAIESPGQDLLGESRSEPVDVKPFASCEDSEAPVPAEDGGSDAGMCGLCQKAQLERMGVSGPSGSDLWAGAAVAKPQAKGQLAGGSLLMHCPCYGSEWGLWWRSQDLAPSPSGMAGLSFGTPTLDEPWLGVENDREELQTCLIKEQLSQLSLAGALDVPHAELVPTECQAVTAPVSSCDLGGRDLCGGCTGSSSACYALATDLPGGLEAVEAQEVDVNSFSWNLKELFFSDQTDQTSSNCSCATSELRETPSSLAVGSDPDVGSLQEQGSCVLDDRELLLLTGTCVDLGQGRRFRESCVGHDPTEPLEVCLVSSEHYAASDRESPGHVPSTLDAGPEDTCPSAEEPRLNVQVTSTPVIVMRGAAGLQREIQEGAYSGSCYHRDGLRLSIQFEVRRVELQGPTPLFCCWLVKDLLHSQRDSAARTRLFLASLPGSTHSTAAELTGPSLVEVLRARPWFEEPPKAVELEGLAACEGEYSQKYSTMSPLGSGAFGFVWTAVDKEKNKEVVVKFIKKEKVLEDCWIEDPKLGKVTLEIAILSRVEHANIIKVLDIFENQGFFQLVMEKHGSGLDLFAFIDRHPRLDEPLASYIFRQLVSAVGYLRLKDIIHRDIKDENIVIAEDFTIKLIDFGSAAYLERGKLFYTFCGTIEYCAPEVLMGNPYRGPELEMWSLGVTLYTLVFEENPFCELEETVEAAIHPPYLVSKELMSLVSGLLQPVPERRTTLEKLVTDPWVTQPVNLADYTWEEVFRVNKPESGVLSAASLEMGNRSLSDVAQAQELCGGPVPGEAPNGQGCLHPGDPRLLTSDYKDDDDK
The experiment in a line: PASK autophosphorylation ELISA assay. The format is cell-based. Particulars: 24 h, ELISA readout. The procedure: The compounds of the invention are profiled in a cellular assay to determine their capacity to reduce the autophosphorylation levels of PASK at position Thr307 in Hek293 cells overexpressing PASK, using an ELISA-based readout.
At day 1, a 96-well cell assay plate is coated with poly-D-lysine (50 μL/well of a 0.05 mg/mL solution in PBS) and incubated for 1 h at 37° C. The plate is subsequently washed once with PBS and stored dry at RT until further use. Hek293 cells are transfected with a pcDNA3.1-PASK(FL,WT)-FLAG construct (SEQ ID1) and seeded in culture medium (DMEM+10% FBS) in a poly-D-lysine coated 96-well plate (0.3 μL JetPEI DNA transfection reagent (Polyplus-transfection SA, Cat #101-40), 10 ng construct and 90 ng pBluescript, 60000 cells per well). […] The cell plate is incubated overnight at 37° C., 5% CO2.
At day 2, the medium of the assay plate is removed and 100 μL of fresh medium (DMEM+10% FBS) is added to the plate. Cell plate is further incubated overnight at 37° C., 5% CO2. This to allow further expression of PASK protein.
At day 3, the medium is removed and replaced with 100 μL of serum free medium (DMEM). Test compound is added to the plate (8 points concentration curve with 1/3 dilution steps starting from 30 μM final concentration in 0.3% DMSO final). In the positive and negative control wells of the plate, 0.3% DMSO final is added. For each tested condition, duplicates are made for ELISA readout. Cell plate is incubated 24 h at 37° C., 5% CO2.
At day 4, the medium is removed and the plate is washed once with 100 μL/well PBS. Cells are lysed by adding 50 μL/well western blot lysis buffer (20 mM Tris pH 7.5, 150 mM NaCl and 1% Triton) to the plate. The assay plate is stored at −80° C. and thawed to perform the ELISA readout.
At day 1, the ELISA plate is coated with the mouse anti-FLAG antibody (2 μg/mL diluted in PBS, 100 μL/well) and incubated overnight at 4° C.
At day 2, the plate is washed once with 150 μL/well PBS. 200 μL/well blocking buffer (PBS with 3% BSA) is added and the plate is incubated for 4 h at RT. The plate is washed with 150 μL/well high salt washing buffer (20 mM Na2HPO4, 0.5% Triton X-100, 0.1% SDS, 0.1% BSA and 1 M NaCl) followed by one wash with 150 μL/well low salt washing buffer (20 mM Na2HPO4, 0.5% Triton X-100, 0.1% SDS, 0.1% BSA and 150 mM NaCl). Meanwhile, the cell lysate plate is thawed, two wells of the same condition are pooled (2×50 μL) and added to the ELISA plate. The ELISA plate is incubated overnight at 4° C.
At day 3, the ELISA plate is washed twice with 150 μL/well high salt washing buffer followed by two washes with low salt washing buffer. 100 μL/well detection antibody for pPASK (phospho-Akt substrate (RXXS*/T*) (110B7E) rabbit antibody (Cell Signaling Technology, Inc., Cat #9614) 2 μg/mL diluted in PBS with 3% BSA and 1×Halt™ protease and phosphatase inhibitor cocktail (Thermo Fisher Scientific, Inc., Cat #78447)) is added and incubated for 2 h at RT. The plate is washed twice with high and low salt wash buffer (150 μL/well) and 100 μL/well of an HRP antibody (swine anti-rabbit HRP antibody (Agilent Technologies, Inc., Cat #P039901) diluted 1/2000 in PBS with 3% BSA and 1×Halt™ protease and phosphatase inhibitor cocktail) is added to the plate, followed by an incubation for 1 h at RT in the dark (plate sealed with aluminum seal). The plate is washed twice with high and low salt wash buffer (150 μL/well) and 100 μL/well of SuperSignal™ ELISA Pico Chemiluminescent Substrate (Thermo Fisher Scientific, Inc., Cat #37070)(premix part 1 and part 2, 1/1) is added. The plate is incubated for 4 min at RT before measuring luminescence on the Luminoskan™ Ascent (Thermo Fisher Scientific, Inc.) (PMT default voltage; 100 ms integration time). […]
(In an ELISA, binding on a coated surface is turned into a signal by an enzyme label.)

In assay [3] the target is T1, human PASK. Briefly: 33P radioactive kinase assay. It is filed as biochemical. Particulars: 33P radioactive PASK kinase assay, 10 μM ATP, ZIPtide 1 μM. Here is the method:
The principle of the ^33P radioactive kinase assay consists in measuring the incorporated ^33P into the ZIPtide peptide substrate when phosphorylated by human PASK using [^33P]-[…]-ATP and ATP, which correlates with kinase activity.
The test compounds are prepared as a serial dilution of 10 point dose responses with 1/5 dilution steps in 100% DMSO starting from 0.2 or 2 mM highest concentration, diluted 1/20 in water and 5 μL is transferred to the assay plates (Greiner, Cat #651201).
as §1
11 μL of enzyme-substrate mixture is added on the assay plates. The reactions are started by adding 9 μL ATP mixture, consisting of non-labeled and ^33P-labeled ATP, on the assay plates.
The reactions are stopped by adding 25 μL phosphoric acid (150 mM) to the reactions.
The completely terminated kinase reactions are transferred using a harvester on pre-wetted UniFilter-96 plates (UniFilter-96 GF/B, PerkinElmer Inc., Cat #6005177).
After harvesting the kinase reactions, the filter plates are washed 6 times with phosphoric acid (75 mM). The back of the UniFilter-96 plates are sealed and 40 μL MicroScint-20 (PerkinElmer Inc., Cat #6013621) is added to each well. The top of each plate is sealed with TopSeal-A (PerkinElmer Inc., Cat #6050185). Read-out is performed with a TopCount instrument (PerkinElmer Inc.).
Raw data are generated following the read-out performed on the TopCount, used to calculate percentage inhibition (PIN) values and plotted to generate dose response curves and derive the average half maximal inhibitory concentrations (IC50) reported in Table VI.

By IC50 is commonly meant the concentration needed to halve the response being measured.

T1 sequence (Q96RG2 whole entry): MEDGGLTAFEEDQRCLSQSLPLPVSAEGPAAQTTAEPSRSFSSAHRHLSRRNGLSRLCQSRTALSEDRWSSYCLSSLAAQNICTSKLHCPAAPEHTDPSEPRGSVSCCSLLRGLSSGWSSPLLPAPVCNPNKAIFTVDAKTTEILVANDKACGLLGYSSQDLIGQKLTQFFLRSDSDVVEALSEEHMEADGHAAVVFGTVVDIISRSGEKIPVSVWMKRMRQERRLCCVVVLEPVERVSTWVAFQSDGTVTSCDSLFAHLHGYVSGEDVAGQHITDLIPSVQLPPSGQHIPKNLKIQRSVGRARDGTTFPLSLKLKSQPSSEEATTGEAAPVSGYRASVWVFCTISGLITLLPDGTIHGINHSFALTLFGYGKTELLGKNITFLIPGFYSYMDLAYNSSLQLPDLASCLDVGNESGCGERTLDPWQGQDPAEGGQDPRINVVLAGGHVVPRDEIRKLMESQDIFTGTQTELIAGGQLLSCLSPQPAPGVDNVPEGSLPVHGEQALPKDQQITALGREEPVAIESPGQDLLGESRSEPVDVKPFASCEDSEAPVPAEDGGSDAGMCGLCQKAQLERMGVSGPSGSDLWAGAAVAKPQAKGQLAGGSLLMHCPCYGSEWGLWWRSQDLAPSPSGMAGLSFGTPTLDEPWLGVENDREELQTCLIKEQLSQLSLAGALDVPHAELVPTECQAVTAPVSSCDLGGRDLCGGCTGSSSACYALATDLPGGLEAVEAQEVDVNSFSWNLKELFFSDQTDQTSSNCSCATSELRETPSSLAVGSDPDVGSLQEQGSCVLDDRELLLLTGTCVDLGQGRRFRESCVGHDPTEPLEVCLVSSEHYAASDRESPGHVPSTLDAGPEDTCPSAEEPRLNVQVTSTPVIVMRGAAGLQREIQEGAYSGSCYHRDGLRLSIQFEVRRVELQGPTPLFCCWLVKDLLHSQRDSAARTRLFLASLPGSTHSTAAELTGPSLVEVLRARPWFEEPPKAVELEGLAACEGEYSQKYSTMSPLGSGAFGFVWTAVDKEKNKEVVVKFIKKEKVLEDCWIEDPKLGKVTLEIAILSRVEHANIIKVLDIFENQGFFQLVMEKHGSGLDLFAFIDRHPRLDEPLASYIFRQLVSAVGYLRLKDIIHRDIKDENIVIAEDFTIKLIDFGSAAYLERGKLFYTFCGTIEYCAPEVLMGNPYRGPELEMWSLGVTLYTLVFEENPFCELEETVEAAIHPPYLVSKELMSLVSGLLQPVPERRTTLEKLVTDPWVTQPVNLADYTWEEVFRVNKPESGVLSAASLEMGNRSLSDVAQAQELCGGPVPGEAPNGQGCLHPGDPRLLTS

Regarding `CCn1nc(C)c(-c2cnn3ccc(-n4cc(C(N)=O)c(OC)n4)cc23)c1C` [Cpd 82, 1-[3-(1-ethyl-3,5-dimethyl-pyrazol-4-yl)pyrazolo[1,5-a]pyridin-5-yl]-3-methoxy-pyrazole-4-carboxamide], the values for the IC50 (at human PASK [1]; in assay [2]) were 0.01 to 10 nM and more than 5000 nM, respectively.
`Cc1nn(C(F)F)c(C)c1-c1cnn2ccc(-n3cc(C(=O)O)cn3)cc12` [Cpd 69, 1-[3-[1-(difluoromethyl)-3,5-dimethyl-pyrazol-4-yl]pyrazolo[1,5-a]pyridin-5-yl]pyrazole-4-carboxylic acid]: the IC50 against human PASK [1] was 0.01 to 10 nM; in assay [2], more than 5000 nM.
In the same order, the values of `COc1nc(-c2ccn3ncc(-c4c(C(F)(F)F)nn(C)c4C)c3c2)sc1C(=O)O` [Cpd 89, 2-[3-[1,5-dimethyl-3-(trifluoromethyl)pyrazol-4-yl]pyrazolo[1,5-a]pyridin-5-yl]-4-methoxy-thiazole-5-carboxylic acid] are 0.01 to 10 nM and 1000 to 5000 nM.
The matching figures for `COc1nc(-c2ccn3ncc(-c4c(C)nn(CC(F)(F)F)c4C)c3c2)sc1C(=O)O` [Cpd 77, 2-[3-[3,5-dimethyl-1-(2,2,2-trifluoroethyl)pyrazol-4-yl]pyrazolo[1,5-a]pyridin-5-yl]-4-methoxy-thiazole-5-carboxylic acid]: 0.01 to 10 nM and more than 5000 nM.
Take `COc1nn(-c2ccn3ncc(-c4c(C)nn(C(C)C)c4C)c3c2)cc1C(=O)O` [Cpd 66, 1-[3-(1-isopropyl-3,5-dimethyl-pyrazol-4-yl)pyrazolo[1,5-a]pyridin-5-yl]-3-methoxy-pyrazole-4-carboxylic acid]: the IC50 was 0.01 to 10 nM against human PASK [1] and more than 5000 nM in assay [2].
Take `COc1nn(-c2ccn3ncc(-c4c(C)nn(C(F)F)c4C)c3c2)cc1C(=O)O` [Cpd 71, 1-[3-[1-(difluoromethyl)-3,5-dimethyl-pyrazol-4-yl]pyrazolo[1,5-a]pyridin-5-yl]-3-methoxy-pyrazole-4-carboxylic acid]: the IC50 against human PASK [1] is 0.01 to 10 nM; in assay [2], more than 5000 nM.
As for `COc1nc(-c2ccn3ncc(-c4c(C)nn(C(C)C(F)(F)F)c4C)c3c2)sc1C(=O)O` (centres unmarked) [Cpd 85, 2-[3-[3,5-dimethyl-1-(2,2,2-trifluoro-1-methyl-ethyl)pyrazol-4-yl]pyrazolo[1,5-a]pyridin-5-yl]-4-methoxy-thiazole-5-carboxylic acid], the IC50 fell in the range of 0.01 to 10 nM against human PASK [1] and 1000 to 5000 nM in assay [2].
As for `COc1nn(-c2ccn3ncc(-c4c(C(F)(F)F)nn(C)c4C)c3c2)cc1C(=O)O` [Cpd 78, 1-[3-[1,5-dimethyl-3-(trifluoromethyl)pyrazol-4-yl]pyrazolo[1,5-a]pyridin-5-yl]-3-methoxy-pyrazole-4-carboxylic acid], the IC50 is 0.01 to 10 nM on human PASK [1] and 1000 to 5000 nM in assay [2].
Turning to `Cc1nn(C)c(C)c1-c1cnn2ccc(-c3nc(OCC(F)(F)F)c(C(=O)O)s3)cc12` [Cpd 90, 4-(2,2,2-trifluoroethoxy)-2-[3-(1,3,5-trimethylpyrazol-4-yl)pyrazolo[1,5-a]pyridin-5-yl]thiazole-5-carboxylic acid], the IC50 was in the range of 0.01 to 10 nM at human PASK [1] and 500 to 1000 nM in assay [2].
For `COc1nc(-c2ccn3ncc(-c4c(C)nn(C(F)F)c4C)c3c2)sc1C(=O)O` [Cpd 79, 2-[3-[1-(difluoromethyl)-3,5-dimethyl-pyrazol-4-yl]pyrazolo[1,5-a]pyridin-5-yl]-4-methoxy-thiazole-5-carboxylic acid], the IC50 on human PASK [1] is 0.01 to 10 nM; in assay [2], more than 5000 nM.
For `Cc1nn(C(C)C)c(C)c1-c1cnn2ccc(-c3ncc(C(=O)O)s3)cc12` [Cpd 30, 2-[3-(1-isopropyl-3,5-dimethyl-pyrazol-4-yl)pyrazolo[1,5-a]pyridin-5-yl]thiazole-5-carboxylic acid], the concentration for half-maximal inhibition (IC50) at human PASK [3] and against human PASK [1] was 0.01 to 10 nM throughout.
Turning to `Cc1noc(C)c1-c1cnn2ccc(-c3nc(C(=O)O)co3)cc12` [Cpd 20, 2-[3-(3,5-dimethylisoxazol-4-yl)pyrazolo[1,5-a]pyridin-5-yl]oxazole-4-carboxylic acid], the IC50 was 10 to 100 nM at human PASK [3] and 100 to 500 nM against human PASK [1].
The matching figures for `Cc1noc(C)c1-c1cnn2ccc(-c3nc(C4CC4)c(C(=O)O)s3)cc12` [Cpd 37, 4-cyclopropyl-2-[3-(3,5-dimethylisoxazol-4-yl)pyrazolo[1,5-a]pyridin-5-yl]thiazole-5-carboxylic acid]: 0.01 to 10 nM and 0.01 to 10 nM.
